Data on 23 molecules can be found in ChEMBL document CHEMBL5131457, “Design, synthesis and biological evaluation of novel 1H-pyrazole-4-carbonyl-4,5,6,7-tetrahydrobenzo [b]thiophene derivatives as gut-selective NaPi2b inhibitors” (Bioorg Med Chem Lett, 2022).

A word on the IC50: it is the concentration that inhibits the measured activity by half. The low end stands for inhibition by little substance, the high end for a need for much substance. As usually defined, the AUC(0-t) is exposure summed from dosing to a finite time, without extrapolation to infinity. A lower AUC(0-t) goes with low exposure. A word on the bioavailability: it is the share of a dose that reaches the circulation, judged against a reference dose that is usually intravenous. Low readings indicate little systemic uptake, high ones much systemic uptake. In general, Cmax refers to the maximum level reached in the sampled fluid or tissue. One may read the solubility as the concentration that dissolves in the medium under given conditions. Read a low solubility as a poorly soluble substance.

Data set [1] addresses T1, Sodium-dependent phosphate transport protein 2B (Homo sapiens, UniProt O95436).
T1 sequence (O95436 whole entry): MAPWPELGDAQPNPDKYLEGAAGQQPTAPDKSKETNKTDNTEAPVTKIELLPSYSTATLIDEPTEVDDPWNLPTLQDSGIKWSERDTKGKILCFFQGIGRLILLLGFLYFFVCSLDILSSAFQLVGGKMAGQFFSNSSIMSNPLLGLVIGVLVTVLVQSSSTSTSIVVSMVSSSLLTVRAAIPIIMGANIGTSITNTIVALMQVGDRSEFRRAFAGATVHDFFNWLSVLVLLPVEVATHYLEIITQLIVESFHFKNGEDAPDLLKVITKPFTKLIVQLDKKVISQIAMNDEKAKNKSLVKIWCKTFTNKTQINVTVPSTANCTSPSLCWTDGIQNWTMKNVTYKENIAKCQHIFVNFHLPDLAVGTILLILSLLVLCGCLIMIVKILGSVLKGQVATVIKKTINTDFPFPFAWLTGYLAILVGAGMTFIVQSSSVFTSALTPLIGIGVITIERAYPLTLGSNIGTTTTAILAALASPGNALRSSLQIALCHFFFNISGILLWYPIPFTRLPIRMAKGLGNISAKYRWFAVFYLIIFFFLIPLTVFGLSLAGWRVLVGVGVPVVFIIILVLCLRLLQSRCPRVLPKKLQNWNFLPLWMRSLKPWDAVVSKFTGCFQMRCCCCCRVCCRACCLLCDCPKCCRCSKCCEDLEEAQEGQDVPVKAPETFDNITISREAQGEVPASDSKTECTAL
As to the kind of experiment: Inhibition of human NaPi2b.

Data set [2] can be described thus: AUC (0 to t) in fasted Sprague-Dawley rat at 1 mg/kg, iv. Also on record: dose 1 mg/kg, route iv. As to conditions: in vivo; for AUC(0-t): Sprague-Dawley. The class given is ADME, organism-based.
Data set [3] can be described thus: Oral bioavailability in fasted Sprague-Dawley rat at 10 mg/kg. To be noted: in vivo; for bioavailability: Sprague-Dawley. The class given is ADME, organism-based.
The nature of data set [4]: AUC (0 to t) in fasted Sprague-Dawley rat at 10 mg/kg, po. As to conditions: in vivo; for AUC(0-t): Sprague-Dawley. The class given is ADME, organism-based. Also on record: dose 10 mg/kg, route po.
Data set [5] is described as follows: Cmax in fasted Sprague-Dawley rat at 10 mg/kg, po. More on the design: dose 10 mg/kg, route po. As to conditions: in vivo. The class given is ADME, organism-based.
Data set [6] in a line: Drug excretion in fasted Sprague-Dawley rat feces at 10 mg/kg, po measured after 24 hrs. The class given is ADME, organism-based. As to conditions: faeces, read-out: Drug excretion.
Data set [7] can be described thus: Drug concentration in Sprague-Dawley rat intestine at 10 mg/kg, po relative to intestine volume. The class given is ADME, organism-based. To be noted: in vivo.
Data set [8] is described as follows: Drug concentration in Sprague-Dawley rat intestine at 10 mg/kg, po relative to excretion rate. The data set is classed as ADME, organism-based. As to conditions: in vivo.
Data set [9] deals with T2, Sodium-dependent phosphate transport protein 2B (Rattus norvegicus, UniProt Q9JJ09).
T2 sequence (Q9JJ09 whole entry): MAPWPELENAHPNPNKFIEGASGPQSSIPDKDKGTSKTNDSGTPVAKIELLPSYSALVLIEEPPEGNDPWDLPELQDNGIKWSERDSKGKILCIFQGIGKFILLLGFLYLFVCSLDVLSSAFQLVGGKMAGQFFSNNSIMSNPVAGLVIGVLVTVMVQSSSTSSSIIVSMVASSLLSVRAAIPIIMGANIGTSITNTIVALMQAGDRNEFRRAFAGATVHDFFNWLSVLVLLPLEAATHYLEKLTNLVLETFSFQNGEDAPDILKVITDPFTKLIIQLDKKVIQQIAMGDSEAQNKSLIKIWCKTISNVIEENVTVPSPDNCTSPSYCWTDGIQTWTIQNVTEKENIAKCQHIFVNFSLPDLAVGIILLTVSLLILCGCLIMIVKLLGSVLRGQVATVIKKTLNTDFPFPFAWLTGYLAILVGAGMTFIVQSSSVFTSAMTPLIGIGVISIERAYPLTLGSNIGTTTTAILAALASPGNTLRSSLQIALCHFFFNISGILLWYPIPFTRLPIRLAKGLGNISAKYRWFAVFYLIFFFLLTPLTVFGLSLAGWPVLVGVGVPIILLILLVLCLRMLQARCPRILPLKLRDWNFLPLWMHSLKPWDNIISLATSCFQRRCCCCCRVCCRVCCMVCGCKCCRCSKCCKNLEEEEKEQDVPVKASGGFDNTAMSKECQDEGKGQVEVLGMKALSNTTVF
As to the kind of experiment: Inhibition of rat NaPi2b.

Data set [10] can be described thus: Solubility of the compound in FaSSIF at pH 6.6. The class given is physicochemical.
Data set [11] in a line: Solubility of the compound in FeSSIF at pH 5.1. The class given is physicochemical.

Where only a bound is given, the exact number is not on record here.

As for `CCC(CC)N(CCN(C)C(=O)CCC(=O)O)S(=O)(=O)c1cccc(C(=O)Nc2sc3c(c2C(=O)c2cnn(-c4ccc(Cl)c(C(F)(F)F)c4)c2)CCC(C)(C)C3)c1`, the IC50 in [1] worked out at 39 nM.

For `CCC(CC)N(CCN(C)C(=O)CCC(=O)O)Cc1cccc(C(=O)Nc2sc3c(c2C(=O)c2cnn(Cc4cccc(C(=O)O)c4)c2)CCC(C)(C)C3)c1`, the IC50 in [1] was over 1000 nM.

As to `CCC(CC)N(CCN(C)C(=O)CCC(=O)O)Cc1cccc(C(=O)Nc2sc3c(c2C(=O)c2cnn(-c4ccc(Cl)c(C(F)(F)F)c4)c2)CCC(C)(C)C3)c1`, the AUC(0-t) in [2] was found to be 3070 ng·h/mL; in data set [4], 2190 ng·h/mL. The same molecule displayed a bioavailability in data set [3] of 7.1%. The same molecule had a Cmax in data set [5] of 625 ng/mL. Besides, in data set [1], 38 nM corresponded to half-maximal inhibition (IC50).

The molecule `CCC(CC)N(CCN(C)C(=O)CCC(=O)O)Cc1cccc(C(=O)Nc2sc3c(c2C(=O)c2cnn(-c4ccc(Cl)cc4)c2)CCN(C(C)=O)C3)c1` had an IC50 in data set [1] of over 1000 nM.

Regarding `CCC(CC)N(CCN(C)C(=O)CCC(=O)O)Cc1cccc(C(=O)Nc2sc3c(c2C(=O)c2cnn(-c4ccc(Cl)cc4)c2)CCCC3)c1`, in data set [1], the IC50 was 118 nM. This counts as sub-micromolar.

Consider `CCC(CC)N(CCN(C)C(=O)CCC(=O)NC(C)(C)C(=O)NCCN(C)C)Cc1cccc(C(=O)Nc2sc3c(c2C(=O)c2cnn(-c4ccc(Cl)c(C(F)(F)F)c4)c2)CCC(C)(C)C3)c1`, for which the AUCt in data set [2] is 2580 ng·h/mL; in data set [4], 15.3 ng·h/mL. Further, the F in data set [3] (po, 10 mg/kg) turned out to be 0.6%. The molecule also displayed a Cmax in data set [5] of 15.3 ng/mL. Moreover, in [6], the dose excreted at 24 h was 76.8%. For the same molecule, the values for the Ct in data set [7] and in data set [8] were 58 µg/mL and 45 µg/mL, respectively. Also, the IC50 came out at 48 nM in data set [1] and 7.6 nM in data set [9].

In data set [1], `CCC(CC)N(CCN(C)C(=O)CCC(=O)O)Cc1cccc(C(=O)Nc2sc3c(c2C(=O)c2cnn(Cc4nnc[nH]4)c2)CCC(C)(C)C3)c1` had an IC50 of over 1000 nM.

In data set [1], `CCC(CC)N(CCN(C)C(=O)CCC(=O)O)Cc1cccc(C(=O)Nc2sc3c(c2C(=O)c2cnn(-c4cccc(C(=O)O)c4)c2)CCC(C)(C)C3)c1` showed an IC50 of over 1000 nM.

In data set [1], `CCC(CC)N(CCN(C)C(=O)CCC(=O)O)Cc1cccc(C(=O)Nc2sc3c(c2C(=O)c2cnn(-c4ccc(Cl)cc4)c2)CCC(C)(C)C3)c1` gave an IC50 of 36 nM. That is a double-digit nanomolar value.

For `CCC(CC)N(CCN(C)C(=O)CCC(=O)O)Cc1cccc(C(=O)Nc2sc3c(c2C(=O)c2cnn(-c4ccc(C(=O)O)cc4)c2)CCC(C)(C)C3)c1`, the IC50 in data set [1] is over 1000 nM.

Molecule `CC1(C)CCc2c(sc(NC(=O)c3cccc(OCCOCCOCCOCCOCCOCCO)c3)c2C(=O)c2cnn(-c3ccc(Cl)c(C(F)(F)F)c3)c2)C1` gave an IC50 in [1] of 170 nM.

Consider `CCC(CC)N(CCN(C)C(=O)CCC(=O)N(C)C[C@H](O)[C@@H](O)[C@@H](O)[C@H](O)CO)Cc1cccc(C(=O)Nc2sc3c(c2C(=O)c2cnn(-c4ccc(Cl)c(C(F)(F)F)c4)c2)CCC(C)(C)C3)c1`, for which, in [1], the IC50 turned out to be 87 nM.

In the case of `CCC(CC)N(CCN(C)C(=O)CCC(=O)O)Cc1cccc(C(=O)Nc2sc3c(c2C(=O)c2cnn(Cc4ccccc4)c2)CCC(C)(C)C3)c1`, the IC50 in data set [1] is 179 nM.

Regarding `CCC(CC)N(CCN(C)C(=O)CCC(=O)NC(C)(C)C(=O)NCCN(C)C)Cc1cccc(C(=O)Nc2sc3c(c2C(=O)c2cnn(-c4ccc(Cl)c(C(F)(F)F)c4)c2)CCC(C)(C)C3)c1.Cl`, the solubility in data set [10] is 242 µg/mL; in data set [11] it was over 434 µg/mL.

Turning to `CCN([C@H]1CC[C@H](C(=O)O)CC1)S(=O)(=O)c1cccc(C(=O)Nc2sc3c(c2C(=O)c2cnn(-c4ccc(Cl)c(C(F)(F)F)c4)c2)CCC(C)(C)C3)c1`, in data set [1], the IC50 came to 42 nM.

Molecule `CCC(CC)N(CCN(C)C(=O)CCC(=O)O)Cc1cccc(C(=O)Nc2sc3c(c2C(=O)c2cnn(-c4ccc(Cl)cc4)c2)CCN(S(C)(=O)=O)C3)c1` came in with an IC50 in data set [1] of 2490 nM.

As to `CCC(CC)N(CCN(C)C(=O)CCC(=O)O)Cc1cccc(C(=O)Nc2sc3c(c2C(=O)c2cnn(Cc4ccc(C(=O)O)cc4)c2)CCC(C)(C)C3)c1`, in data set [1], the IC50 is over 1000 nM.

In turn, `CCC(CC)N(CCN(C)C(=O)CCC(=O)O)Cc1cccc(C(=O)Nc2sc3c(c2C(=O)c2cnn(-c4ccc(Cl)cc4)c2)CCSC3)c1` yielded a half-maximal inhibitory concentration (IC50) in data set [1] of 713 nM. That is a sub-micromolar value.

Regarding `CCC(CC)N(CCN(C)C(=O)CCC(=O)O)Cc1cccc(C(=O)Nc2sc3c(c2C(=O)c2cnn(-c4ccc(Cl)cc4)c2)CCN(C2CC2)C3)c1`, in [1], inhibition was half-maximal at 80 nM (IC50).

`CCC(CC)N(CCN(C)C(=O)CCC(=O)NCCOCCOCCOCCO)Cc1cccc(C(=O)Nc2sc3c(c2C(=O)c2cnn(-c4ccc(Cl)c(C(F)(F)F)c4)c2)CCC(C)(C)C3)c1`: the AUC(0-t) in data set [2] turned out to be 1570 ng·h/mL; in [4], 32.3 ng·h/mL. This molecule also registered a bioavailability in data set [3] of 0.2%. The same molecule yielded a Cmax in [5] of 28.1 ng/mL. In addition, in [6], the dose excreted at 24 h is 61.7%. The Ct in data set [7] came to 58 µg/mL; in data set [8] it was 36 µg/mL. Further, the values for the IC50 in data set [1] and in data set [9] were 15 nM and 2.1 nM, respectively.

In the case of `CCC(CC)N(CCN(C)C(=O)CCC(=O)NCCOCCOCCOCCO)Cc1cccc(C(=O)Nc2sc3c(c2C(=O)c2cnn(-c4ccc(Cl)c(C(F)(F)F)c4)c2)CCC(C)(C)C3)c1.Cl`, the solubility in data set [10] is 107 µg/mL; in [11], over 384 µg/mL.

Turning to `CCC(CC)N(CCN(C)C(=O)CCC(=O)O)Cc1cccc(C(=O)Nc2sc3c(c2C(=O)c2cnn(-c4cccc(C(F)(F)F)c4)c2)CCC(C)(C)C3)c1`, in data set [1], it took 46 nM to reach half-maximal inhibition (IC50).

Molecule `CCC(CC)N(CCN(C)C(=O)CCC(=O)O)Cc1cccc(C(=O)Nc2sc3c(c2C(=O)c2cnn(-c4ccc(Cl)cc4)c2)CCOC3)c1` registered an IC50 in data set [1] of 437 nM.
